Assay results: US20090047243A1, “COMBINATIONS FOR THE TREATMENT OF B-CELL PROLIFERATIVE DISORDERS” (priority 2007, published 2009)
Structures can show the parent of a compound that is named as a salt. Where two headings read alike, the source gives them in different places.

Columns and labels:
[1] = tested on: RPMI-8226, H929, MM.1S and MM.1R MM cell lines; assay: Anti-proliferation assay, statements across MM cell lines; format: cell-based, human; settings: for rank of synergy scores among PDE inhibitors: crossed with adenosine receptor agonists; for activity and synergy of adenosine receptor agonists: RPMI-8226, H929, MM.1S and MM.1R MM cell lines
Method: The MM.1S, MM.1R, H929, MOLP-8, EJM, INA-6, ANBL6, KSM-12-PE, OPM2, and RPMI-8226 multiple myeloma cell lines, as well as the Burkitt's lymphoma cell line GA-10 and the non-Hodgkin's lymphoma cell lines Farage, SU-DHL6, and Karpas 422 were cultured at 37° C. and 5% CO2 in RPMI-1640 media supplemented with 10% FBS. ANBL6 and INA-6 culture media was also supplemented with 10 ng/ml IL-6. The OCI-ly10 cell line was cultured using RPMI-1640 media supplemented with 20% human serum. MM.1S, MM.1R, OCI-ly10, Karpas 422, and SU-DHL6 cells were provided by the Dana Farber Cancer Institute. H929, RPMI-8226, GA-10, and Farage cells were from ATCC (Cat #'s CCL-155, CRL-9068, CRL-2392 and CRL-2630 respectively). MOLP-8, EJM, KSM-12-PE, and OPM2 were from DSMZ. The ANBL6 and INA-6 cell lines were provided by the M. D. Anderson Cancer Research Center.
Compounds were prepared in DMSO at 1000× the highest desired concentration. Master plates were generated consisting of serially diluted compounds in 2- or 3-fold dilutions in 384-well format. For single agent dose response curves, the master plates consisted of 9 individual compounds at 12 concentrations in 2- or 3-fold dilutions. For combination matrices, master plates consisted of individual compounds at 6 or 9 concentrations at 2- or 3-fold dilutions.
Cells were added to 384-well plates 24 hours prior to compound addition such that each well contained 2000 cells in 35 μL of media. Master plates were diluted 100× (1 μL into 100 μL) into 384-well dilution plates containing only cell culture media. 4.5 μL from each dilution plate was added to each assay plate for a final dilution of 1000×. To obtain combination data, two master plates were diluted into the assay plates. Following compound addition, assay plates were kept at 37° C. and 5% CO2 for 72 hours. Thirty microliters of ATPLite (Perkin Elmer) at room temperature was then added to each well. Final amount of ATP was quantified within 30 minutes using ATPLite luminescent read-out on an Envision 2103 Multilabel Reader (Perkin Elmer). Measurements were taken at the top of the well using a luminescence aperture and a read time of 0.1 seconds per well.
The Loewe additivity model was used to quantify combination effects. Combinations were ranked initially by Additivity Excess Volume, which is defined as ADD Volume=ΣCX, CY (Idata−ILoewe). where ILoewe(CX, CY) is the inhibition that satisfies (CX/ECX)+(CY/ECY)=1, and ECX,Y are the effective concentrations at ILoewe for the single agent curves. A “Synergy Score” was also used, where the Synergy Score S=log fX log fY ΣIdata(Idata−ILoewe), summed over all non-single-agent concentration pairs, and where log fX,Y is the natural logarithm of the dilution factors used for each single agent. This effectively calculates a volume between the measured and Loewe additive response surfaces, weighted towards high inhibition and corrected for varying dilution factors. An uncertainty σS was calculated for each synergy score, based on the measured errors for the Idata values and standard error propagation.

[2] = tested on: human multiple myeloma cells (MM.1S); assay: Anti-proliferation assay (ATPLite, 72 h); format: cell-based; set-up: key to synergy score / synergy (score), PDEi × HE-NECA: S = lnfX·lnfY·ΣIdata(Idata−ILoewe), volume over Loewe additivity; settings: for synergy (score), PDEi × HE-NECA: 6×6 cross of PDE inhibitor or PDE inhibitor mixture with HE-NECA; for inhibition at 1.17 µM: ADAC 1.17 μM; for inhibition at 3.51 µM: ADAC 3.51 μM; for inhibition at 10.5 µM: ADAC 10.5 μM; for inhibition at 31.6 µM: ADAC 31.6 μM
Outline: (§1)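 Percent inhibition, calculated against averaged untreated wells, derives from ATPLite luminescence. Dose-response curves spanned 12 concentrations in 2- or 3-fold steps. IL-6 at 10 ng/ml was added to the ANBL6 culture medium.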

[3] = tested on: human multiple myeloma cells (MM.1R); assay: Anti-proliferation assay (ATPLite, 72 h); format: cell-based; set-up: key: S = lnfX·lnfY·ΣIdata(Idata−ILoewe), volume over Loewe additivity
Outline: as §1

[4] = PDE inhibitor crossed with (S) ENBA, MM.1S
[5] = PDE inhibitor crossed with Chloro-IB-MECA, MM.1S
[6] = PDE inhibitor crossed with HE-NECA, MM.1S
[7] = in combination with adenosine receptor agonist CGS-21680, MM.1S
[8] = in combination with adenosine receptor agonist HE-NECA, MM.1S
[9] = in combination with adenosine receptor agonist regadenoson, MM.1S
[10] = in combination with adenosine receptor agonist CGS-21680, MM.1R
[11] = in combination with adenosine receptor agonist regadenoson, MM.1R
[12] = Homo sapiens, MM1.S, 10 ng/mL IL-6, Trequinsin conc. (μM), read-out: percent inhibition of ATP in MM.1S cells
[13] = Homo sapiens, MM1.S, no IL-6, Trequinsin conc. (μM), read-out: percent inhibition of ATP in MM.1S cells

## COc1cc2c(cc1OC)-c1cc(=Nc3c(C)cc(C)cc3C)n(C)c(=O)n1CC2 [Trequinsin hydrochloride, 2,3,6,7-tetrahydro-9,10-dimethoxy-3-methyl-2-((2,4,6-trimethylphenyl)imino)-4H-pyrimido(6,1-a)isoquinolin-4-one]
[1]
  rank of synergy scores among PDE inhibitors: highest synergy scores
[2]; MM.1S
  synergy (score), PDEi × HE-NECA: 5.7
[2]; Homo sapiens, MM1.S, 10 ng/mL IL-6, Trequinsin 0.377 μM, HE-NECA conc. (nM), read-out: percent inhibition of ATP in MM.1S cells
  inhibition at 0.377 µM: -1.2%
[2]; Homo sapiens, MM1.S, 10 ng/mL IL-6, Trequinsin 1.13 μM, HE-NECA conc. (nM), read-out: percent inhibition of ATP in MM.1S cells
  inhibition at 1.13 µM: 5.1%
[2]; Homo sapiens, MM1.S, 10 ng/mL IL-6, Trequinsin 3.39 μM, HE-NECA conc. (nM), read-out: percent inhibition of ATP in MM.1S cells
  inhibition at 3.39 µM: 8.9%
[2]; Homo sapiens, MM1.S, 10 ng/mL IL-6, Trequinsin 10.2 μM, HE-NECA conc. (nM), read-out: percent inhibition of ATP in MM.1S cells
  inhibition at 10.2 µM: 26%
[2]; Homo sapiens, MM1.S, 10 ng/mL IL-6, Trequinsin 30.5 μM, HE-NECA conc. (nM), read-out: percent inhibition of ATP in MM.1S cells
  inhibition at 30.5 µM: 95%
[2]; Homo sapiens, MM1.S, 72 h, trequinsin 0.377 μM alone (HE-NECA 0), 72 h, read-out: Percent inhibition of ATP in MM.1S cells
  inhibition at 0.377 µM: 7.4%
[2]; Homo sapiens, MM1.S, 72 h, trequinsin 1.13 μM alone (HE-NECA 0), 72 h, read-out: Percent inhibition of ATP in MM.1S cells
  inhibition at 1.13 µM: 0.96%
[2]; Homo sapiens, MM1.S, 72 h, trequinsin 3.39 μM alone (HE-NECA 0), 72 h, read-out: Percent inhibition of ATP in MM.1S cells
  inhibition at 3.39 µM: 10%
[2]; Homo sapiens, MM1.S, 72 h, trequinsin 10.17 μM alone (HE-NECA 0), 72 h, read-out: Percent inhibition of ATP in MM.1S cells
  inhibition at 10.17 µM: 26%
[2]; Homo sapiens, MM1.S, 72 h, trequinsin 30.5 μM alone (HE-NECA 0), 72 h, read-out: Percent inhibition of ATP in MM.1S cells
  inhibition at 30.5 µM: 68%
[2]; [4]
  synergy score: 4.56
[2]; PDE inhibitor crossed with ADAC, MM.1S
  synergy score: 6.62
[2]; [5]
  synergy score: 5.95
[2]; [6]
  synergy score: 7.85
[2]; in combination with adenosine receptor agonist ADAC, MM.1S
  synergy score: 6.619
[2]; [7]
  synergy score: 6.26
[2]; [8]
  synergy score: 7.235
[2]; [9]
  synergy score: 1.85
[3]; in combination with adenosine receptor agonist ADAC, MM.1R
  synergy score: 6.47
[3]; [10]
  synergy score: 6.57
[3]; in combination with adenosine receptor agonist HE-NECA, MM.1R
  synergy score: 4.329
[3]; [11]
  synergy score: 2.8

## CCCCC#Cc1nc(N)c2ncn([C@@H]3O[C@H](C(=O)NCC)[C@@H](O)[C@H]3O)c2n1 [HE-NECA, hexynyladenosine-5′-N-ethylcarboxamide]
[1]
  activity and synergy of adenosine receptor agonists: active and synergistic
[2]; HE-NECA 0.0251 μM alone (trequinsin 0), 72 h
  percent inhibition of ATP in MM.1S cells: 78%
[2]; HE-NECA 0.0752 μM alone (trequinsin 0), 72 h
  percent inhibition of ATP in MM.1S cells: 79%
[2]; HE-NECA 0.226 μM alone (trequinsin 0), 72 h
  percent inhibition of ATP in MM.1S cells: 83%
[2]; HE-NECA 0.677 μM alone (trequinsin 0), 72 h
  percent inhibition of ATP in MM.1S cells: 80%
[2]; HE-NECA 2.03 μM alone (trequinsin 0), 72 h
  percent inhibition of ATP in MM.1S cells: 86%

## COc1cc(-c2ccc(=O)[nH]n2)ccc1OC(F)F [Zardaverine, 6-(4-(difluoromethoxy)-3-methoxyphenyl)-3(2H)-Pyridazinone]
[1]
  rank of synergy scores among PDE inhibitors: highest synergy scores
[2]; MM.1S
  synergy (score), PDEi × HE-NECA: 4.39
[2]; Homo sapiens, MM1.S, Zardaverine 1.89 μM, Cl-IB-MECA conc. (μM), read-out: Percent inhibition of ATP in MM.1S cells
  inhibition at 1.89 µM: 0.11%
[2]; Homo sapiens, MM1.S, Zardaverine 3.79 μM, Cl-IB-MECA conc. (μM), read-out: Percent inhibition of ATP in MM.1S cells
  inhibition at 3.79 µM: -1.8%
[2]; Homo sapiens, MM1.S, Zardaverine 7.58 μM, Cl-IB-MECA conc. (μM), read-out: Percent inhibition of ATP in MM.1S cells
  inhibition at 7.58 µM: 13%
[2]; Homo sapiens, MM1.S, Zardaverine 15.2 μM, Cl-IB-MECA conc. (μM), read-out: Percent inhibition of ATP in MM.1S cells
  inhibition at 15.2 µM: 5.1%
[2]; Homo sapiens, MM1.S, Zardaverine 30.3 μM, Cl-IB-MECA conc. (μM), read-out: Percent inhibition of ATP in MM.1S cells
  inhibition at 30.3 µM: 14%
[2]; [4]
  synergy score: 2.59
[2]; [5]
  synergy score: 3.71
[2]; [6]
  synergy score: 4.39
[2]; [7]
  synergy score: 3.64
[2]; [8]
  synergy score: 4.39
[2]; [9]
  synergy score: 1.45
[3]; [10]
  synergy score: 2.15
[3]; [11]
  synergy score: 1.49

## NCCNC(=O)Cc1ccc(NC(=O)Cc2ccc(Nc3ncnc4c3ncn4[C@@H]3O[C@H](CO)[C@@H](O)[C@H]3O)cc2)cc1 [ADAC, N-(4-(2-((4-(2-((2-aminoethyl)amino)-2-oxoethyl)phenyl)amino)-2-oxoethyl)phenyl)-Adenosine]
[1]
  activity and synergy of adenosine receptor agonists: active and synergistic
[2]; [12]
  inhibition at 1.17 µM: 79%
  inhibition at 3.51 µM: 81%
  inhibition at 10.5 µM: 85%
  inhibition at 31.6 µM: 83%
[2]; Homo sapiens, MM1.S, 10 ng/mL IL-6, ADAC […], Trequinsin conc. (μM), read-out: percent inhibition of ATP in MM.1S cells
  inhibition at […]: 61%
[2]; Homo sapiens, MM1.S, ADAC 1.975 μM, Trequinsin Hydrochloride conc. (μM), read-out: Percent inhibition of ATP in MM.1S cells
  inhibition at 1.975 µM: 37%
[2]; Homo sapiens, MM1.S, ADAC 3.95 μM, Trequinsin Hydrochloride conc. (μM), read-out: Percent inhibition of ATP in MM.1S cells
  inhibition at 3.95 µM: 49%
[2]; Homo sapiens, MM1.S, ADAC 15.8 μM, Trequinsin Hydrochloride conc. (μM), read-out: Percent inhibition of ATP in MM.1S cells
  inhibition at 15.8 µM: 66%
[2]; Homo sapiens, MM1.S, Trequinsin Hydrochloride conc. (μM), read-out: Percent inhibition of ATP in MM.1S cells
  inhibition at 31.6 µM: 60%
[2]; [13]
  inhibition at 1.17 µM: 49%
  inhibition at 3.51 µM: 57%
  inhibition at 10.5 µM: 66%
  inhibition at 31.6 µM: 60%
